In brackets after ≈: the same amount, converted by molar mass. Read-outs that look alike come from different tables or passages of the source.
Tests used:
[1] = Proliferation of exponentially growing Huh-5-2 cells (MTS method); settings: human
Method in brief: (§1)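 Huh-5-2 cells carrying the luciferase HCV replicon, seeded 24 h, then exposed to serial compound dilutions without G418 for 72 h at 37° C, 5% CO2. Replication read as luciferase luminescence, expressed as percentage of untreated cultures; culture density measured in parallel by MTS.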

[2] = tested on: HCV replicon I389luc-ubi-neo/NS3-3'/5.1; assay: Anti-HCV replicon assay (luciferase activity) in Huh-5-2 cells; type: cell-based, Hepatitis C virus; settings: Hepatitis C virus, concentration required to inhibit luciferase activity in the replicon system by 50%
Method in brief: as §1

[3] = CC50, concentration required to inhibit the proliferation of exponentially growing Huh-5-2 cells by 50%, Table 2

## COCCN1C(=O)c2ccccc2C(C(=O)Nc2ccc(C(=O)N(C)C)cc2)C1c1cccs1 (stereo not shown) [C139, N-(4-(dimethylcarbamoyl)phenyl)-2-(2-methoxyethyl)-1-oxo-3-(thiophen-2-yl)-1,2,3,4-tetrahydroisoquinoline-4-carboxamide]
[1]; [3]
  CC50 at 72 h: 75.3 µg/mL (≈ 158 µM)
[2]; Huh-5-2, 72 h
  IC50: 2.74 µg/mL (≈ 5.74 µM)

## COCCN1C(=O)c2ccccc2C(C(=O)Nc2ccc(C(=O)NCc3ccccc3)cc2)C1c1cccs1 (stereo not shown) [C137, N-(4-(benzylcarbamoyl)phenyl)-2-(2-methoxyethyl)-1-oxo-3-(thiophen-2-yl)-1,2,3,4-tetrahydroisoquinoline-4-carboxamide]
[1]; [3]
  CC50 at 72 h: 81.1 µg/mL (≈ 150 µM)
[2]; Huh-5-2, 72 h
  IC50: 0.032 µg/mL (≈ 0.0593 µM)

## COc1cccc(NC(=O)C2c3ccccc3C(=O)N(C3CCCCC3)C2c2cccs2)c1 (stereo not shown) [C25, 2-Cyclohexyl-N-(3-methoxyphenyl)-1-oxo-3-(thiophen-2-yl)-1,2,3,4-tetrahydroisoquinoline-4-carboxamide]
[1]; [3]
  CC50 at 72 h: 5.28 µg/mL (≈ 11.5 µM)
[2]; Huh-5-2, 72 h
  IC50: 0.98 µg/mL (≈ 2.13 µM)

## COCCN1C(=O)c2ccccc2C(C(=O)Nc2ccc3ncoc3c2)C1c1cccs1 (stereo not shown) [C219, N-(benzo[d]oxazol-6-yl)-2-(2-methoxyethyl)-1-oxo-3-(thiophen-2-yl)-1,2,3,4-tetrahydroisoquinoline-4-carboxamide]
[1]; [3]
  CC50 at 72 h: 91.1 µg/mL (≈ 204 µM)
[2]; Huh-5-2, 72 h
  IC50: 1.14 µg/mL (≈ 2.55 µM)

## COCCN1C(=O)c2ccccc2C(C(=O)Nc2cccc(OC)c2)C1c1sccc1Cl (stereo not shown) [C17, 3-(3-Chlorothiophen-2-yl)-2-(2-methoxyethyl)-N-(3-methoxyphenyl)-1-oxo-1,2,3,4-tetrahydroisoquinoline-4-carboxamide]
[1]; [3]
  CC50 at 72 h: 50.4 µg/mL (≈ 107 µM)
[2]; Huh-5-2, 72 h
  IC50: 3.8 µg/mL (≈ 8.07 µM)

## COCCN1C(=O)c2ccccc2C(C(=O)Nc2cccc(OC)c2)C1CC1CCOCC1 (stereo not shown) [C97, 2-(2-methoxyethyl)-N-(3-methoxyphenyl)-1-oxo-3-((tetrahydro-2H-pyran-4-yl)methyl)-1,2,3,4-tetrahydroisoquinoline-4-carboxamide]
[1]; [3]
  CC50 at 72 h: 80 µg/mL (≈ 177 µM)
[2]; Huh-5-2, 72 h
  IC50: 51.6 µg/mL (≈ 114 µM)

## COCCN1C(=O)c2ccccc2C(C(=O)Nc2ccccc2)C1c1cccs1 (stereo not shown) [C18, 2-(2-Methoxyethyl)-1-oxo-N-phenyl-3-(thiophen-2-yl)-1,2,3,4-tetrahydroisoquinoline-4-carboxamide]
[1]; [3]
  CC50 at 72 h: 78.2 µg/mL (≈ 192 µM)
[2]; Huh-5-2, 72 h
  IC50: 2.65 µg/mL (≈ 6.52 µM)

## COc1cccc(NC(=O)C2c3ccccc3C(=O)N(CC(F)(F)F)C2c2cccs2)c1 (stereo not shown) [C62, N-(3-methoxyphenyl)-1-oxo-3-(thiophen-2-yl)-2-(2,2,2-trifluoroethyl)-1,2,3,4-tetrahydroisoquinoline-4-carboxamide]
[1]; [3]
  CC50 at 72 h: 16.4 µg/mL (≈ 35.5 µM)
[2]; Huh-5-2, 72 h
  IC50: 8.81 µg/mL (≈ 19.1 µM)

## COc1cccc(NC(=O)C2c3ccccc3C(=O)N(CCOC(C)C)C2c2cccs2)c1 (stereo not shown) [C66, 2-(2-Isopropoxyethyl)-N-(3-methoxyphenyl)-1-oxo-3-(thiophen-2-yl)-1,2,3,4-tetrahydroisoquinoline-4-carboxamide]
[1]; [3]
  CC50 at 72 h: 39.2 µg/mL (≈ 84.4 µM)
[2]; Huh-5-2, 72 h
  IC50: 1.99 µg/mL (≈ 4.28 µM)

## COCCN1C(=O)c2ccccc2C(C(=O)Nc2nc3ccc(Cl)cc3s2)C1c1cccs1 (stereo not shown) [C202, N-(6-chlorobenzo[d]thiazol-2-yl)-2-(2-methoxyethyl)-1-oxo-3-(thiophen-2-yl)-1,2,3,4-tetrahydroisoquinoline-4-carboxamide]
[1]; [3]
  CC50 at 72 h: 7.89 µg/mL (≈ 15.8 µM)
[2]; Huh-5-2, 72 h
  IC50: 0.17 µg/mL (≈ 0.341 µM)

## COCCN1C(=O)c2ccccc2C(C(=O)Nc2cccc(OC)c2)C1c1ccc[nH]1 (stereo not shown) [C29, 2-(2-Methoxyethyl)-N-(3-methoxyphenyl)-1-oxo-3-(1H-pyrrol-2-yl)-1,2,3,4-tetrahydroisoquinoline-4-carboxamide]
[1]; [3]
  CC50 at 72 h: 54.5 µg/mL (≈ 130 µM)
[2]; Huh-5-2, 72 h
  IC50: 14.8 µg/mL (≈ 35.2 µM)

## COCCN1C(=O)c2ccccc2C(C(=O)NCc2cccc3ccccc23)C1c1cccs1 (stereo not shown) [C72, 2-(2-methoxyethyl)-N-(naphthalen-1-ylmethyl)-1-oxo-3-(thiophen-2-yl)-1,2,3,4-tetrahydroisoquinoline-4-carboxamide]
[1]; [3]
  CC50 at 72 h: 71.2 µg/mL (≈ 151 µM)
[2]; Huh-5-2, 72 h
  IC50: 35.8 µg/mL (≈ 76.1 µM)

## COCCN1C(=O)c2ccccc2C(C(=O)Nc2cc(C(C)(C)C)[nH]n2)C1c1cccs1 (stereo not shown) [C185, N-(5-tert-butyl-1H-pyrazol-3-yl)-2-(2-methoxyethyl)-1-oxo-3-(thiophen-2-yl)-1,2,3,4-tetrahydroisoquinoline-4-carboxamide]
[1]; [3]
  CC50 at 72 h: 19 µg/mL (≈ 42 µM)
[2]; Huh-5-2, 72 h
  IC50: 10.4 µg/mL (≈ 23 µM)

## COCCN1C(=O)c2ccccc2C(C(=O)Nc2ccc(CN3CCCCC3)cc2)C1c1cccs1 (stereo not shown) [C216, 2-(2-methoxyethyl)-1-oxo-N-(4-(piperidin-1-ylmethyl)phenyl)-3-(thiophen-2-yl)-1,2,3,4-tetrahydroisoquinoline-4-carboxamide]
[1]; [3]
  CC50 at 72 h: 10.9 µg/mL (≈ 21.7 µM)
[2]; Huh-5-2, 72 h
  IC50: 2.57 µg/mL (≈ 5.1 µM)

## COCCN1C(=O)c2ccccc2C(C(=O)Nc2cccc(C(F)(F)F)c2)C1c1cccs1 (stereo not shown) [C110, 2-(2-methoxyethyl)-1-oxo-3-(thiophen-2-yl)-N-(3-(trifluoromethyl)phenyl)-1,2,3,4-tetrahydroisoquinoline-4 carboxamide]
[1]; [3]
  CC50 at 72 h: 79.3 µg/mL (≈ 167 µM)
[2]; Huh-5-2, 72 h
  IC50: 1.45 µg/mL (≈ 3.06 µM)

## COCCN1C(=O)c2ccccc2C(C(=O)Nc2cc(C)on2)C1c1cccs1 (stereo not shown) [C126, 2-(2-methoxyethyl)-N-(5-methylisoxazol-3-yl)-1-oxo-3-(thiophen-2-yl)-1,2,3,4-tetrahydroisoquinoline-4-carboxamide]
[1]; [3]
  CC50 at 72 h: 58.1 µg/mL (≈ 141 µM)
[2]; Huh-5-2, 72 h
  IC50: 0.9 µg/mL (≈ 2.19 µM)

## COCCN1C(=O)c2c(ccc(OC)c2F)C(C(=O)Nc2ccc(-n3cccc3)cc2)C1c1cccs1 (stereo not shown) [C150, N-(4-(1H-pyrrol-1-yl)phenyl)-8-fluoro-7-methoxy-2-(2-methoxyethyl)-1-oxo-3-(thiophen-2-yl)-1,2,3,4-tetrahydroisoquinoline-4-carboxamide]
[1]; [3]
  CC50 at 72 h: > 125 µg/mL
[2]; Huh-5-2, 72 h
  IC50: 0.08 µg/mL (≈ 0.154 µM)

## COCCN1C(=O)c2ccccc2C(C(=O)Nc2ccc(-c3cccnc3)cc2)C1c1cccs1 (stereo not shown) [C173, 2-(2-methoxyethyl)-1-oxo-N-(4-(pyridin-3-yl)phenyl)-3-(thiophen-2-yl)-1,2,3,4-tetrahydroisoquinoline-4-carboxamide]
[1]; [3]
  CC50 at 72 h: 9.59 µg/mL (≈ 19.8 µM)
[2]; Huh-5-2, 72 h
  IC50: 0.09 µg/mL (≈ 0.186 µM)

## COCCN1C(=O)c2ccccc2C(C(=O)Nc2ccc(C(F)(F)F)cc2)C1c1cccs1 (stereo not shown) [C19, 2-(2-Methoxyethyl)-1-oxo-3-(thiophen-2-yl)-N-(4-(trifluoromethyl)phenyl)-1,2,3,4-tetrahydroisoquinoline-4-carboxamide]
[1]; [3]
  CC50 at 72 h: 12.1 µg/mL (≈ 25.5 µM)
[2]; Huh-5-2, 72 h
  IC50: 5.2 µg/mL (≈ 11 µM)

## COCCN1C(=O)c2ccccc2C(C(=O)N(C)c2cccc(OC)c2)C1c1cccs1 (stereo not shown) [C151, 2-(2-methoxyethyl)-N-(3-methoxyphenyl)-N-methyl-1-oxo-3-(thiophen-2-yl)-1,2,3,4-tetrahydroisoquinoline-4-carboxamide]
[1]; [3]
  CC50 at 72 h: 52 µg/mL (≈ 115 µM)
[2]; Huh-5-2, 72 h
  IC50: 22.8 µg/mL (≈ 50.7 µM)

## C#CC1C(C(=O)Nc2cccc(OC)c2)c2ccccc2C(=O)N1CCOC (stereo not shown) [C83, 3-ethynyl-2-(2-methoxyethyl)-N-(3-methoxyphenyl)-1-oxo-1,2,3,4-tetrahydroisoquinoline-4-carboxamide]
[1]; [3]
  CC50 at 72 h: 70 µg/mL (≈ 185 µM)
[2]; Huh-5-2, 72 h
  IC50: 0.4 µg/mL (≈ 1.06 µM)

## COCCN1C(=O)c2ccccc2C(C(=O)Nc2cc(C)no2)C1c1cccs1 (stereo not shown) [C127, 2-(2-methoxyethyl)-N-(3-methylisoxazol-5-yl)-1-oxo-3-(thiophen-2-yl)-1,2,3,4-tetrahydroisoquinoline-4-carboxamide]
[1]; [3]
  CC50 at 72 h: 87.2 µg/mL (≈ 212 µM)
[2]; Huh-5-2, 72 h
  IC50: 10.3 µg/mL (≈ 25 µM)

## COCCN1C(=O)c2ccccc2C(C(=O)Nc2ccc3ncsc3c2)C1c1cccs1 (stereo not shown) [C170, N-(benzo[d]thiazol-6-yl)-2-(2-methoxyethyl)-1-oxo-3-(thiophen-2-yl)-1,2,3,4-tetrahydroisoquinoline-4-carboxamide]
[1]; [3]
  CC50 at 72 h: 37.7 µg/mL (≈ 81.2 µM)
[2]; Huh-5-2, 72 h
  IC50: 0.12 µg/mL (≈ 0.259 µM)

## COCCN1C(=O)c2ccccc2C(C(=O)Nc2cccc(OC)c2)C1C=C(C)C (stereo not shown) [C120, 2-(2-methoxyethyl)-N-(3-methoxyphenyl)-3-(2-methylprop-1-enyl)-1-oxo-1,2,3,4-tetrahydroisoquinoline-4-carboxamide]
[1]; [3]
  CC50 at 72 h: 95.4 µg/mL (≈ 233 µM)
[2]; Huh-5-2, 72 h
  IC50: 3.28 µg/mL (≈ 8.03 µM)

## COCCN1C(=O)c2ccccc2C(C(=O)Nc2nc3ccc(OC)cc3s2)C1c1ccc(F)cc1 (stereo not shown) [C273, 3-(4-fluorophenyl)-N-(6-methoxybenzo[d]thiazol-2-yl)-2-(2-methoxyethyl)-1-oxo-1,2,3,4-tetrahydroisoquinoline-4-carboxamide]
[1]; Huh-5-2 cells (Huh-5 cell line with persistent HCV replicon)
  CC50 at 72 h: 14.9 µg/mL (≈ 29.5 µM)
[2]; 72 hours, read-out: IC50
  IC50: 1.4 µg/mL (≈ 2.77 µM)

## COCCN1C(=O)c2ccccc2C(C(=O)Nc2ccc3[nH]c(C)cc3c2)C1c1cccs1 (stereo not shown) [C131, 2-(2-methoxyethyl)-N-(2-methyl-1H-indol-5-yl)-1-oxo-3-(thiophen-2-yl)-1,2,3,4-tetrahydroisoquinoline-4-carboxamide]
[1]; [3]
  CC50 at 72 h: 69.7 µg/mL (≈ 152 µM)
[2]; Huh-5-2, 72 h
  IC50: 1.12 µg/mL (≈ 2.44 µM)

From US20110224208A1, “NOVEL INHIBITORS OF FLAVIVIRUS REPLICATION” (KATHOLIEKE UNIVERSITEIT LEUVEN, K.U. LEUVEN R&D, priority 2008, published 2011)
